Assay results published in patent US9561228B2 (Celgene Avilomics Research, Inc., priority 2013, dated 2017).

How the values were obtained:
MEK1 activated ERK1 = target: T1, MEK1 activated ERK1 (Homo sapiens, UniProt P27361); test: Omnia continuous-read kinase assay for potency against MEK1 activated ERK1; type: biochemical; details: MEK1 activated ERK1, ATP at KM; read-out: ERK1 Omnia WT ATP KM IC50
T1 construct: purchased Millipore (Billerica, Mass.) 14-439-K
Source text: Omnia Assay Protocol for Potency Assessment Against MEK1 Activated ERK1:
The protocol below describes continuous-read kinase assays to measure potency of compounds against activated ERK1 enzyme. The mechanics of the assay platform are best described by the vendor (Invitrogen, Carlsbad, Calif.) on their website at the following URL: invitrogen.com/site/us/en/home.html.
Briefly, a 1.25× stock of ERK1 enzyme (14-439-K) from Millipore (Billerica, Mass.), 5×ATP (AS001A) and ST17-Sox conjugated peptide substrate (KNZ1171C) were prepared in 1× kinase reaction buffer consisting of 20 mM Tris, pH 7.5, 5 mM MgCl2, 1 mM EGTA, 5 mM β-glycerophosphate, 5% glycerol (10× stock, KB002A) and 0.2 mM DTT. 10 μL of ATP/ST17-sox peptide substrate mix was combined with 0.5 μL volume of 100% DMSO and serially diluted compounds were prepared in 100% DMSO in a Corning (#3574) 384-well, white, non-binding surface microtiter plate (Corning, N.Y.). Kinase reactions were started with the addition of 40 μL of ERK1 solution and monitored every 71 seconds for 30-240 minutes at λex360/λem485 in a Synergy plate reader from BioTek (Winooski, Vt.). At the conclusion of each assay, progress curves from each well were examined for linear reaction kinetics and fit statistics (R^2, 95% confidence interval, absolute sum of squares). Initial velocity (0 minutes to ˜30+ minutes) from each reaction was determined from the slope of a plot of relative fluorescence units vs time (minutes or seconds) and then plotted against inhibitor concentration to estimate ^AppIC50 from log [Inhibitor] vs Response, Variable Slope model in GraphPad Prism from GraphPad Software (San Diego, Calif.).
[Reagent] used in optimized protocol:
[ERK1]=4 nM, [ATP]=50 μM, [ST17-Sox]=10 μM (ATP ^appKM 48 μM)
The results of this assay show the degree of inhibition of ERK activity, which is a direct measurement of inhibition of ERK activity. Results from this assay are reported in Table A under the column “ERK1 Omnia WT ATP KM IC50 (nM).”

[1] = tested on: ERK1/2 phosphorylation of p90RSK in HT29 cells; test: pRSK MSD Assay in HT29 cells; type: cell-based; details: Homo sapiens, HT-29, read-out: ERK1/ERK2 PRSK MSD HT29 EC50
Protocol: The protocol below describes an assay to measure the kinase activity of ERK1/2 to phosphorylate a substrate, p90RSK, in the presence or absence of a test compound. This experiment was conducted using a Mesoscale Discovery plate. The day before the assay, HT29 cells were split and plated at 50,000 cells/well in complete growth media. After allowing cells to adhere, the media was removed and replaced with media containing 0.1% FBS and incubated overnight. Blank MSD plates (Mesoscale Discovery, Cat # L15XA3) were coated with 25 μl/well RSK capture antibody (BD Biosciences, Cat. #610226) and incubated at 4° C. overnight, then blocked with 150 μl of 3% BSA solution. The next day, the media from the cell culture plate was removed and replaced with 100 μl of media containing a test compound and incubated for 120 minutes at 37° C. The media was removed and replaced with 55 μl per well of lysis buffer with protease inhibitors (Roche Biosciences, Cat. #11836170001) and phosphatase inhibitors (Sigma-Aldrich, Cat. # P-0044 and P-5726), followed by incubation at 4° C. for 30 minutes. 50 μl of lysate was transferred to a blocked MSD plate, followed by incubation at room temperature for 2 hours under constant shaking. The plate was washed 3 times with MSD wash buffer (Mesoscale Discovery, Cat. # R617TX), and 25 μl/well phospho-RSK (pRSK) detection antibody (Cell Signaling Technology, Cat. #9335) was added with Sulfo-tagged detection antibody (Mesoscale Discovery, Cat. # R32AB-1) diluted in 1% BSA in MSD wash buffer. This mixture was incubated for 1 hour at room temperature under constant shaking. The plate was washed 3 times, and 150 μl 1×MSD read buffer was added, followed by signal detection in an MSD plate reader.

T1 sequence (P27361 whole entry): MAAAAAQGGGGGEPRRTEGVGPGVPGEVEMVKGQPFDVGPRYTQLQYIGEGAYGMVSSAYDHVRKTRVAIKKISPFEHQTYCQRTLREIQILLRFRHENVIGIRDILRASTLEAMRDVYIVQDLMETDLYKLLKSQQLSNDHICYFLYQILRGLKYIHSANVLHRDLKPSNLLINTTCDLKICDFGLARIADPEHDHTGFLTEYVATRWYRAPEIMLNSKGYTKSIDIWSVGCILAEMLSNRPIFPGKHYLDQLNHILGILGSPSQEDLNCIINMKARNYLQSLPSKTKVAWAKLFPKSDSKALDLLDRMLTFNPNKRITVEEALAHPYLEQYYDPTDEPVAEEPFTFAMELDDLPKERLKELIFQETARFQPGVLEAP

Row | SMILES | IC50 (MEK1 activated ERK1) | EC50 [1]
1 | C=CS(=O)(=O)N[C@@H]1CCCC[C@H]1Nc1nc(N[C@H]2CCCN(C(=O)CO)C2)ncc1C(F)(F)F [Compound I-36, N-((1R,2R)-2-((2-(((S)-1-(2-Hydroxyacetyl)piperidin-3-yl)amino)-5-(trifluoromethyl)pyrimidin-4-yl)amino)cyclohexyl)ethenesulfonamide] |  | 501 to 999 nM
2 | C=CC(=O)Nc1cc(Cl)ccc1Nc1nc(Nc2cc(Cl)nc(OC)c2)ncc1Cl [Compound I-247, N-(5-chloro-2-((5-chloro-2-((2-chloro-6-methoxypyridin-4-yl)amino)pyrimidin-4-yl)amino)phenyl)acrylamide] |  | 101 to 500 nM
3 | C=CC(=O)Nc1ccccc1Nc1nc(N[C@H]2CCCN(C(=O)C3CC3)C2)ncc1Cl [Compound I-136, (S)—N-(2-((5-chloro-2-((1-(cyclopropanecarbonyl)piperidin-3-yl)amino)pyrimidin-4-yl)amino)phenyl)acrylamide] |  | 501 to 999 nM
4 | CC(=O)N1CCC[C@H](Nc2ncc(C(F)(F)F)c(N[C@@H]3[C@H](C(N)=O)[C@H]4C=C[C@@H]3C4)n2)C1 [Compound I-309, (1R,2R,3S,4S)-3-((2-(((S)-1-acetylpiperidin-3-yl)amino)-5-(trifluoromethyl)pyrimidin-4-yl)amino)bicyclo[2.2.1]hept-5-ene-2-carboxamide] |  | > 1000 nM
5 | C=CC(=O)N(C)c1ccccc1Nc1nc(Nc2cc(C(=O)NOC)ccc2C#N)ncc1Cl [Compound I-197, 3-((5-chloro-4-((2-(N-methylacrylamido)phenyl)amino)pyrimidin-2-yl)amino)-4-cyano-N-methoxybenzamide] |  | > 1000 nM
6 | CC(C)=CC(=O)c1ccccc1Oc1nc(Nc2ccc(F)cc2C)ncc1Cl [Compound I-222, 1-(2-((5-chloro-2-((4-fluoro-2-methylphenyl)amino)pyrimidin-4-yl)oxy)phenyl)-3-methylbut-2-en-1-one] |  | > 1000 nM
7 | C=CC(=O)Nc1ccccc1CNc1nc(N[C@H]2CCCN(C(=O)CO)C2)ncc1C(F)(F)F [Compound I-45, (S)—N-(2-(((2-((1-(2-Hydroxyacetyl)piperidin-3-yl)amino)-5-(trifluoromethyl)pyrimidin-4-yl)amino)methyl)phenyl)acrylamide] |  | > 1000 nM
8 | C=CC(=O)Nc1ccccc1Nc1nc(N[C@@H]2CCN(C(=O)CO)C2)ncc1C(F)(F)F [Compound I-62, (R)—N-(2-((2-((1-(2-Hydroxyacetyl)pyrrolidin-3-yl)amino)-5-(trifluoromethyl)pyrimidin-4-yl)amino)phenyl)acrylamide] |  | > 1000 nM
9 | C=C(C)C(=O)Nc1ccccc1Nc1nc(Nc2cc(C(N)=O)ccc2C)ncc1Cl [Compound I-217, 3-((5-chloro-4-((2-methacrylamidophenyl)amino)pyrimidin-2-yl)amino)-4-methylbenzamide] |  | > 1000 nM
10 | C=CC(=O)Nc1cc(C)ccc1Nc1nc(Nc2cc(Cl)nc(OC)c2)ncc1Cl [Compound I-244, N-(2-((5-chloro-2-((2-chloro-6-methoxypyridin-4-yl)amino)pyrimidin-4-yl)amino)-5-methylphenyl)acrylamide] |  | 101 to 500 nM
11 | C=C(C)S(=O)(=O)Nc1cc(F)ccc1Nc1nc(N[C@H]2CCCN(C(=O)CO)C2)ncc1C(F)(F)F [Compound I-54, (S)—N-(5-Fluoro-2-((2-((1-(2-hydroxyacetyl)piperidin-3-yl)amino)-5-(trifluoromethyl)pyrimidin-4-yl)amino)phenyl)prop-1-ene-2-sulfonamide] |  | > 1000 nM
12 | Cc1ccc(C(N)=O)cc1Nc1ncc(Cl)c(Nc2ccccc2NC(=O)/C=C/CN(C)C)n1 [Compound I-218, (E)-3-((5-chloro-4-((2-(4-(dimethylamino)but-2-enamido)phenyl)amino)pyrimidin-2-yl)amino)-4-methylbenzamide] |  | > 1000 nM
13 | CC(C)=CC(=O)c1ccccc1Oc1nc(Nc2cc(C(N)=O)ccc2C)ncc1Cl [Compound I-223, 3-((5-chloro-4-(2-(3-methylbut-2-enoyl)phenoxy)pyrimidin-2-yl)amino)-4-methylbenzamide] |  | > 1000 nM
14 | CC#CC(=O)N[C@@H]1CCCC[C@H]1Nc1nc(N[C@H]2CCCN(C(=O)CO)C2)ncc1C(F)(F)F [Compound I-33, N-((1R,2R)-2-((2-(((S)-1-(2-Hydroxyacetyl)piperidin-3-yl)amino)-5-(trifluoromethyl)pyrimidin-4-yl)amino)cyclohexyl)but-2-ynamide] |  | > 1000 nM
15 | C=CC(=O)Nc1ccccc1Nc1nc(N[C@H]2CCCN(C(=O)C(C)C)C2)ncc1Cl [Compound I-137, (S)—N-(2-((5-chloro-2-((1-isobutyrylpiperidin-3-yl)amino)pyrimidin-4-yl)amino)phenyl)acrylamide] |  | 501 to 999 nM
16 | C=CC(=O)Nc1ccccc1Nc1nc(N[C@H]2CCCN(C(=O)OC)C2)ncc1C(F)(F)F [Compound I-17, (S)-Methyl 3-((4-((2-acrylamidophenyl)amino)-5-(trifluoromethyl)pyrimidin-2-yl)amino) piperidine-1-carboxylate] |  | 101 to 500 nM

The next lines start with the values.

Row | IC50 (MEK1 activated ERK1) | EC50 [1] | SMILES
17 | 101 to 500 nM |  | C=CC(=O)Nc1ccccc1Nc1nc(N[C@H]2CC[C@H](O)CC2)ncc1C(F)(F)F [Compound I-1, Trans-N-(2-((2-((4-hydroxycyclohexyl)amino)-5-(trifluoromethyl)pyrimidin-4-yl)amino)phenyl)acrylamide]
18 |  | > 1000 nM | C=C(C)S(=O)(=O)Nc1cc(C)ccc1Nc1nc(NC2CCC(=O)CC2)ncc1C(F)(F)F [Compound I-53, N-(5-Methyl-2-((2-((4-oxocyclohexyl)amino)-5-(trifluoromethyl)pyrimidin-4-yl)amino)phenyl)prop-1-ene-2-sulfonamide]
19 |  | > 1000 nM | C/C=C/C(=O)Nc1ccccc1Nc1nc(Nc2cc(C(N)=O)ccc2C)ncc1Cl [Compound I-219, (E)-3-((4-((2-(but-2-enamido)phenyl)amino)-5-chloropyrimidin-2-yl)amino)-4-methylbenzamide]
20 |  | > 1000 nM | CC#CC(=O)Nc1ccccc1Nc1nc(N[C@H]2CCCN(C(=O)CO)C2)ncc1C(F)(F)F [Compound I-29, (S)—N-(2-((2-((1-(2-Hydroxyacetyl)piperidin-3-yl)amino)-5-(trifluoromethyl)pyrimidin-4-yl)amino)phenyl)but-2-ynamide]
21 |  | > 1000 nM | C=CC(=O)Nc1ccccc1Nc1nc(N[C@@H]2CCN(C(=O)OC)C2)ncc1C(F)(F)F [Compound I-61, (R)-Methyl 3-((4-((2-Acrylamidophenyl)amino)-5-(trifluoromethyl)pyrimidin-2-yl)amino)pyrrolidine-1-carboxylate]
22 |  | > 1000 nM | C=CC(=O)Nc1cc(C)ccc1Nc1nc(N[C@H]2CCCN(C(=O)c3ccccc3)C2)ncc1C(F)(F)F [Compound I-44, (S)—N-(2-((2-((1-Benzoylpiperidin-3-yl)amino)-5-(trifluoromethyl)pyrimidin-4-yl)amino)-5-methylphenyl)acrylamide]
23 |  | > 1000 nM | C=CC(=O)N[C@H]1CCCC1Nc1nc(N[C@H]2CCCN(C(C)=O)C2)ncc1C(F)(F)F (stereo in doubt) [Compound I-24, N-((1S,2S)-2-((2-(((S)-1-Acetylpiperidin-3-yl)amino)-5-(trifluoromethyl)pyrimidin-4-yl)amino)cyclopentyl)acrylamide]
24 |  | > 1000 nM | CC(C)=CC(=O)c1ccccc1Oc1nc(Nc2cc(C(N)=O)ccc2C)ncc1C(N)=O [Compound I-271, 2-((5-carbamoyl-2-methylphenyl)amino)-4-(2-(3-methylbut-2-enoyl)phenoxy)pyrimidine-5-carboxamide]
